# Source: US20040133938A1, “Use of lipoic acid in plant culture media” (priority 2002, published 2004)
# Tested on: immature embryos of wheat cv Bobwhite
# Experiment: Wheat Agrobacterium transformation
# Type: cell-based, Triticum aestivum L
# Settings: for Efficiency (%) / Responding calli (%): selection and first regeneration media
# Experimental: This example describes the use of lipoic acid in an Agrobacterium-based wheat transformation process. Immature embryos of wheat (Triticum aestivum L) cv Bobwhite were isolated from the immature caryopsis (wheat spikelets) 13-15 days after pollination, and cultured on M7 media (M7 medium is based on CM4C medium [Table 8], but the amount of MS salts was doubled and the picloram concentration was increased from 2.4 mg/L to 4 mg/L) containing 0.02 mM glyphosate for 3-4 days in the dark at 25° C. The embryos without embryogenic callus were selected for Agrobacterium inoculation. After preculture, 100 embryos were inoculated in 5 mL 1/10 CM4C medium with 5 mL Agrobacterium (OD660=1), 10 μL Pluronic F68 was added, and the mixture was incubated for 15 minutes in the dark at room temperature. Embryos were placed on sterilized filter paper with 200 μL deionized water and cocultured in the dark for 3 days at 23° C. Embryos were then transferred to delay media for 7 days in the dark at 25° C. Delay medium consists of CM4C, 500 mg/L carbenicillin, and 0.02 mM glyphosate. Selection was then performed on CM4C with 2 mM glyphosate, 500 mg/L carbenicillin and aromatic amino acids (10^−7/amino acid) for 7 days. Regeneration was started on MMSO.2C with 0.1 mM glyphosate, 250 mg/L carbenicillin, and aromatic amino acids ([…]) for 2 weeks in the light at 25° C. Regeneration was continued in MMSO.2C with 0.02 mM glyphosate, 500 mg/L carbenicillin, aromatic amino acids (10^−7/amino acid), and 2 μM copper sulfate for 2-8 weeks (with a transfer every 2 weeks) in the light at 25° C. Finally, plantlets were transferred to sundae cups with MMSO media with 0.02 mM glyphosate, and 500 mg/L carbenicillin.
# [1] = Delay-selection-first regeneration 25-25-50 (μM), 599 explants
# [2] = Delay-selection-first regeneration 25-50-50 (μM), 560 explants
# [3] = Delay-selection-first regeneration 50-50-50 (μM), 570 explants
smiles,measurement,setting,value
"O=C(O)CCCCC1CCSS1 (stereo not shown) [lipoic acid, 1,2-dithiolane-3-pentanoic acid]",Efficiency (%),"5 μM in delay, 472 explants",3.8%
same,Responding calli (%),"5 μM in delay, 472 explants",33.1%
same,Efficiency (%),"10 μM in delay, 486 explants",3.2%
same,Responding calli (%),"10 μM in delay, 486 explants",38.8%
same,Efficiency (%),"30 μM in delay, 486 explants",3.0%
same,Responding calli (%),"30 μM in delay, 486 explants",38.6%
same,Efficiency (%),"50 μM in delay, 482 explants",5.1%
same,Responding calli (%),"50 μM in delay, 482 explants",47.9%
same,Efficiency (%),"100 μM in delay, 464 explants",2.2%
same,Responding calli (%),"100 μM in delay, 464 explants",28.4%
same,% efficiency,[1],3.0%
same,% responding calli,[1],41.7%
same,% efficiency,[2],5.4%
same,% responding calli,[2],50.5%
same,% efficiency,[3],4.9%
same,% responding calli,[3],49.6%
